From the NIST ThermoML archive (doi:10.1021/acs.jced.5b00662)

Assay: xn = mol fraction of the nth substance listed
Conditions: 100 kPa, Liquid; for speed of sound: Sing-around technique in a fixed-path interferometer; for mass density: Vibrating tube method

OCCOCCO [diethylene glycol] + O
Conditions | mass density, x1 = 0.907 [kg/m3] | mass density, x1 = 0.9589 [kg/m3] | mass density, x1 = 0.9698 [kg/m3] | mass density, x1 = 0.99 [kg/m3] | mass density, x1 = 0.9901 [kg/m3] | speed of sound, x1 = 0.907 [m/s] | speed of sound, x1 = 0.9589 [m/s] | speed of sound, x1 = 0.9698 [m/s] | speed of sound, x1 = 0.99 [m/s] | speed of sound, x1 = 0.9901 [m/s]
283.15 K | 1123.13 | 1123.27 | 1123.27 | 1123.33 | 1123.33 | 1620.3 | 1617.8 | 1617.4 | 1616.4 | 1616.5
288.15 K | 1119.58 | 1119.71 | 1119.72 | 1119.77 | 1119.77 | 1608 | 1605.5 | 1605.2 | 1604.1 | 1604.2
293.15 K | 1116.02 | 1116.15 | 1116.16 | 1116.21 | 1116.21 | 1595.9 | 1593.3 | 1593 | 1591.9 | 1592
298.15 K | 1112.45 | 1112.59 | 1112.59 | 1112.65 | 1112.65 | 1583.8 | 1581 | 1580.8 | 1579.6 | 1579.8
303.15 K | 1108.88 | 1109.02 | 1109.03 | 1109.08 | 1109.08 | 1571.7 | 1569 | 1568.6 | 1567.5 | 1567.4
308.15 K | 1105.3 | 1105.43 | 1105.44 | 1105.5 | 1105.5 | 1559.6 | 1557 | 1556.6 | 1555.4 | 1555.4
313.15 K | 1101.69 | 1101.83 | 1101.84 | 1101.9 | 1101.9 | 1547.5 | 1545 | 1544.6 | 1543.4 | 1543.3
323.15 K | 1094.45 | 1094.6 | 1094.6 | 1094.67 | 1094.67 | 1523.4 | 1520.9 | 1520.5 | 1519.3 | 1519.2
333.15 K | 1087.12 | 1087.28 | 1087.29 | 1087.36 | 1087.36 | 1499 | 1496.6 | 1496.2 | 1495.1 | 1494.9
343.15 K | 1079.71 | 1079.88 | 1079.9 | 1079.97 | 1079.97 | 1474.6 | 1472.2 | 1471.8 | 1470.8 | 1470.5

CCOCCOCCOCC [diethylene glycol diethyl ether] + O
Conditions | mass density [kg/m3] | speed of sound [m/s]
283.15 K, x1 = 0.97 | 918.572 | 1305.3
283.15 K, x1 = 0.9742 | 918.371 | 1304.9
283.15 K, x1 = 0.9778 | 918.271 | 1303.9
283.15 K, x1 = 0.9836 | 917.783 | 1303.6
283.15 K, x1 = 0.9875 | 917.643 | 1304.4
283.15 K, x1 = 0.9911 | 917.567 | 1304.1
288.15 K, x1 = 0.97 | 913.742 | 1284.9
288.15 K, x1 = 0.9742 | 913.543 | 1284.6
288.15 K, x1 = 0.9778 | 913.443 | 1283.6
288.15 K, x1 = 0.9836 | 912.955 | 1283.3
288.15 K, x1 = 0.9875 | 912.82 | 1284
288.15 K, x1 = 0.9911 | 912.74 | 1284
293.15 K, x1 = 0.97 | 908.91 | 1264.8
293.15 K, x1 = 0.9742 | 908.705 | 1264.4
293.15 K, x1 = 0.9778 | 908.61 | 1263.6
293.15 K, x1 = 0.9836 | 908.126 | 1263.2
293.15 K, x1 = 0.9875 | 907.993 | 1263.9
293.15 K, x1 = 0.9911 | 907.914 | 1263.8
298.15 K, x1 = 0.97 | 904.074 | 1244.9
298.15 K, x1 = 0.9742 | 903.873 | 1244.6
298.15 K, x1 = 0.9778 | 903.775 | 1243.7
298.15 K, x1 = 0.9836 | 903.3 | 1243.4
298.15 K, x1 = 0.9875 | 903.166 | 1244.1
298.15 K, x1 = 0.9911 | 903.09 | 1244
303.15 K, x1 = 0.97 | 899.235 | 1225.2
303.15 K, x1 = 0.9742 | 899.035 | 1224.9
303.15 K, x1 = 0.9778 | 898.937 | 1224
303.15 K, x1 = 0.9836 | 898.467 | 1223.6
303.15 K, x1 = 0.9875 | 898.334 | 1224.4
303.15 K, x1 = 0.9911 | 898.256 | 1224.2
308.15 K, x1 = 0.97 | 894.389 | 1205.6
308.15 K, x1 = 0.9742 | 894.189 | 1205.3
308.15 K, x1 = 0.9778 | 894.092 | 1204.6
308.15 K, x1 = 0.9836 | 893.628 | 1204.1
308.15 K, x1 = 0.9875 | 893.496 | 1204.7
308.15 K, x1 = 0.9911 | 893.419 | 1204.6
313.15 K, x1 = 0.97 | 889.537 | 1186.4
313.15 K, x1 = 0.9742 | 889.339 | 1186
313.15 K, x1 = 0.9778 | 889.241 | 1185.3
313.15 K, x1 = 0.9836 | 888.783 | 1184.7
313.15 K, x1 = 0.9875 | 888.652 | 1184.7
313.15 K, x1 = 0.9911 | 888.577 | 1185.3
323.15 K, x1 = 0.97 | 879.812 | 1148.2
323.15 K, x1 = 0.9742 | 879.619 | 1147.7
323.15 K, x1 = 0.9778 | 879.518 | 1147.3
323.15 K, x1 = 0.9836 | 879.074 | 1146.7
323.15 K, x1 = 0.9875 | 878.945 | 1146.3
323.15 K, x1 = 0.9911 | 878.873 | 1146.2
333.15 K, x1 = 0.97 | 870.056 | 1111
333.15 K, x1 = 0.9742 | 869.867 | 1110.4
333.15 K, x1 = 0.9778 | 869.76 | 1110
333.15 K, x1 = 0.9836 | 869.332 | 1109.5
333.15 K, x1 = 0.9875 | 869.203 | 1109.1
333.15 K, x1 = 0.9911 | 869.134 | 1108.9
343.15 K, x1 = 0.97 | 860.264 | 1074.5
343.15 K, x1 = 0.9742 | 860.076 | 1074
343.15 K, x1 = 0.9778 | 859.966 | 1073.7
343.15 K, x1 = 0.9836 | 859.55 | 1073.1
343.15 K, x1 = 0.9875 | 859.411 | 1072.6
343.15 K, x1 = 0.9911 | 859.346 | 1072.7
